For one experiment, the system named is primary retinal neurons. Briefly: Neurite growth of primary retinal neurons on complex inhibitory substrates (CSPG, myelin). The format is cell-based, rats. Particulars: plated on myelin or CSPG; 48 hours; FIG. 8.
Experiment [1] relates to corticospinal tract (CST) fibers. Details: species or system Balb-c female mice. The conditions noted are these: mouse, in vivo.
A further experiment has as its system hindlimb motor function. Briefly: Behavioral recovery after SCI, modified BBB locomotor rating scale. The format is in vivo, mice. On the procedure:
Since a toe clearance phase cannot be evaluated in recuperating mice, we modified the rating to a 17 point scale. Behavioral recovery was assessed for one month after SCI in an open field environment by the BBB method (Basso et al., 1995). […] Thus, scale points 16, 17 and 18 were removed from the scale. Mice raise their tail early in their recovery, and score 19 for tail up position was removed, leaving a 17 point total score. The mouse modified BBB score was as follows: [0] no observable hindlimb (HL) movement; […] […] In the late phase of recovery, the BBB score was determined from sequences of 4 steps or more from digitized videos projected on a computer screen at ¼ speed.

As to `C[C@@H](N)[C@H]1CC[C@H](C(=O)Nc2ccncc2)CC1` [Y27632, (+)-Trans-4-(1-aminoethyl)-1-(4-pyridycarbamoyl)-cyclohexane], the “length of neurites compared to untreated cells” value in the experiment on primary retinal neurons is given as “significantly increased the length of neurites”. Besides, in experiment [1], the “distance of the longest axon from the lesion site” value is “up to 3 mm”; the “sprouting of transected CST axons” value is “regenerative sprouting into the dorsal white matter and toward the lesion site”. The “locomotor recovery over 1 month” value with hindlimb motor function (1 month period of observation) is “exhibited hindlimb-forelimb coordination”. Further, the “locomotor recovery at 24 hours after surgery” value with hindlimb motor function (24 hours, control mice paraplegic, FIG. 10) is on record as “already walking with weight support”.

The values are drawn from patent US7169783B2, “(+)-Trans-4-(1-aminoethyl)-1-(4-pyridycarbamoyl)-cyclohexane and method for promoting neural growth in the central nervous system and in a patient at a site of neuronal lesion” (Universite de Montreal, priority 1998, dated 2007).
